# In patent publication US11542271B2, “Fused heteroaromatic-aniline compounds for treatment of dermal disorders” (NFlection Therapeutics, Inc., priority 2017, dated 2023):
# pIC50: −log10 of the molar value. Like-named read-outs stand apart in the source and are kept apart here.
# Tests used:
# HCT116 cells = experiment: HCT116 (Kras) GI50 cell-based assay (Cell Titer-Glo); conditions: Homo sapiens, HCT-116, 72 hours, read-out: Assay 3: HCT116 (Kras) GI50
# Description: (§1) Alternatively, the following procedure can be used to measure cell-based activity. Test compounds were dissolved in DMSO in 10 mM stock. Cell Titer-Glo® 2.0 Luminescent cell viability assay reagent was purchased from Promega (Madison, Wis.). A375 and HCT116 cell lines were purchased from American Type Culture Collection (Manassas, Va.). For A375 cells, cell culture media was DMEM+10% FBS. For HCT116 cells, cell culture media was McCoy's 5A+10% FBS. All media were supplemented with 100 μg/mL of penicillin, and 100 μg/mL of streptomycin. Cultures were maintained at 37° C. in a humidified atmosphere of 5% CO2 and 95% air.
# (§2) Test compounds were diluted in DMSO solution with 10-dose and 3-fold dilutions in a source plate starting at 10 mM. […] Luminescence was recorded by Envision 2104 Multilabel Reader (PerkinElmer, Santa Clara, Calif.). The number of viable cells in culture was determined based on quantitation of the ATP present in each culture well. […] Luminescence was recorded by Envision 2104 Multilabel Reader (PerkinElmer, Santa Clara, Calif.). The number of viable cells in culture was determined based on quantitation of the ATP present in each culture well. […] All parameters in the equation were calculated by GraphPad Prism 4 program. […] Accordingly, GI50 is the value of 10^X, where X was calculated by the Curve Fitting Equation when Y=50 using Excel.
# [1] = S9 Stability Assay, human liver S9 fraction; format: in vitro ADME; conditions: for half-life at 1 μM / microsomal CLint at 1 μM: human liver S9 fraction, pH 7.4
# Description: Compounds were assessed for metabolic stability in human skin by assessing their rate of disappearance from human S9 skin fraction. Similarly, compounds were assessed for metabolic stability in human liver by assessing their rate of disappearance from human S9 liver fraction. The protocol below can be used to assess the difference between skin and hepatic metabolism.
# The assay was carried out in 96-well microtiter plates at 37° C. Reaction mixtures (25 μL) contained a final concentration of 1 μM test compound, 2 mg/mL liver or skin S9 protein, and 1 mM NADPH in buffer (100 mM potassium phosphate, pH 7.4 buffer with 1 mM EDTA, 3 mM MgCl2). At each of the time points (0, 15, 30, and 60 minutes), 150 μL of quench solution (100% acetonitrile with 0.1% formic acid) with internal standard was transferred to each well. Besides the zero minute controls, mixtures containing the same components except the NADPH were also prepared as the negative control. Verapamil or testosterone was included as a positive control to verify assay performance. Plates were sealed and centrifuged at 4° C. for 15 minutes at 4000 rpm. The supernatant was transferred to fresh plates for LC/MS/MS analysis.
# All samples were analyzed on LC/MS/MS using an AB Sciex API 4000 instrument, coupled to a Shimadzu LC-20AD LC Pump system. Analytical samples were separated using a Waters Atlantis T3 dC18 reverse phase HPLC column (20 mm×2.1 mm) at a flow rate of 0.5 mL/min. The mobile phase consisted of 0.1% formic acid in water (solvent A) and 0.1% formic acid in 100% acetonitrile (solvent B).
# The extent of metabolism was calculated as the disappearance of the test compound, compared to the 0-min control reaction incubations. Initial rates were calculated for the compound concentration and used to determine t1/2 values and subsequently, the intrinsic clearance, CLint=(0.693) (1/t1/2 (min)) (mL incubation/mg of S9 protein).
# MAP2K1 (MEK1) = biological target: T1, MAP2K1 (MEK1) (Homo sapiens, UniProt Q02750); experiment: MEK Inhibition Assay (Biological Example 1b, Z'-LYTE); conditions: Biological Example 1b (compounds 1, 3, 5, 7-8); read-out: Assay 1: biochemical MEK IC50
# T1 construct: purchased ThermoFisher
# Description: MEK1 inhibitory activity of compounds were tested using the following procedure (protocol available at thermofisher.com/content/dam/LifeTech/migration/files/drug-discovery/pdfs.par.60256.file.dat/20130430%20ssbk%20customer%20protocol%20and%20assay%20conditions.pdf). The Z′-LYTE biochemical assay (ThermoFisher) employs a fluorescence-based, coupled-enzyme format and is based on the differential sensitivity of phosphorylated and non-phosphorylated peptides to proteolytic cleavage.
# Test compounds in 100% DMSO were screened in 1% DMSO (final) in the well. For 10 point titrations, 3-fold serial dilutions are conducted from the starting concentration of 30 μM.
# After the 1 hour incubation, 5 μL of a 1:1024 dilution of Development Reagent A (available from Invitrogen, catalog no. PV3295) was added.
# ATP solutions were diluted to a 4× working concentration in Kinase Buffer (50 mM HEPES pH 7.5, 0.01% BRIJ-35, 10 mM MgCl2, 1 mM EGTA). ATP Km apparent was previously determined using a Z′-LYTE assay. The Development Reagent was diluted in Development Buffer (available from Invitrogen, catalog no. P3127).
# Assay Protocol: 2.5 μL of 4× test compound or 100 nL of 100× Test Compound plus 2.4 μL Kinase Buffer, 5 μL of the 2× Peptide/Kinase Mixture, 2.5 μL of 4×ATP Solution were added to the plates and placed on a shake plate for 30-seconds. The kinase reaction was allowed to proceed for 60-minute at room temperature, before 5 μL of Development Reagent Solution was added, and the mixture agitated for 30-seconds on a shake plate. The mixture was incubated for 60-minute at room temperature. Fluorescence was measured using a plate reader and the data were analyzed.
# This control yielded 100% cleaved peptide in the Development Reaction. The 100% Phosphorylation Control, which consisted of a synthetically phosphorylated peptide of the same sequence as the peptide substrate, was designed to allow for the calculation of percent phosphorylation. This control yielded a very low percentage of cleaved peptide in the Development Reaction. The 0% Phosphorylation and 100% Phosphorylation Controls allow for the calculation of the percent phosphorylation achieved in a specific reaction well.
# The minimum emission ratio in a screen was established by the 0% Inhibition Control, which contained active kinase. This control was designed to produce a 10-50% phosphorylated peptide in the Kinase Reaction. Cascade assays may produce up to 70% phosphorylated peptide.
# A known inhibitor control standard curve, 10 point titration, was run for each individual kinase on the same plate as the kinase to ensure the kinase was inhibited within an expected IC50 range previously determined.
# The following controls are prepared for each concentration of Test Compound assayed. […] The expected value for a non-interfering compound should be 100%. Any value outside of 90% to 110% was flagged. […] The expected value for a non-fluorescence compound should be 0%. Any value >20% was flagged.
# The data in Table A was calculated. XLfit from IDBS was used. The dose response curve was curve fit to model number 205 (sigmoidal dose-response model).
# A375 cells = experiment: A375 (BRAF) GI50 cell-based assay (Cell Titer-Glo); conditions: Homo sapiens, A-375, 72 hours, read-out: Assay 2: A375 (BRAF) GI50
# Description: as §1, §2
# MEK1 = biological target: T2, MEK1 (Homo sapiens, UniProt Q02750); experiment: MEK Inhibition Assay (Biological Example 1a, 33P-ATP, P81 filter-binding); conditions: Biological Example 1a (used for compounds 2 and 6); read-out: Assay 1: biochemical MEK IC50
# T2 construct: N-terminal His-tagged recombinant human full length protein, expressed in insect cells; His (N); purchased Invitrogen PV3303; host or cells: insect cells
# Description: MEK1 inhibitory activity of compounds were tested using the following procedure.
# • Reaction buffer: 20 mM Hepes (pH 7.5), 10 mM MgCl2, 1 mM EGTA, 0.02% Brij35, 0.02 mg/mL bovine serum albumin, 0.1 mM Na3V04, 2 mM DTT, 1% DMSO • Enzyme: MEK1, Invitrogen cat #PV3303 • N-terminal His-tagged recombinant human full length protein, expressed in insect cells. Activated in vitro by RAF1. MW=49.2 kDa, GenBank Accession No. NP_002746. • Substrate: 5 μM ERK2 (K52R), • Kinase-dead mutant, (GenBank Accession No. NM_0011949), aa2-358 with N-terminal His6 tag, MW=43.63 kDa, expressed in E. coli.
# The substrate was prepared in freshly prepared Reaction Buffer. The kinase was delivered into the substrate solution and gently mixed. Test compounds were delivered in 100% DMSO into the kinase reaction mixture by Acoustic technology (Echo550; nanoliter range), and incubated for 20 min at room temperature. ^33P-ATP was delivered into the reaction mixture to initiate the reaction. The reaction mixture was incubated for 2 hours at room temperature. Kinase activity was detected by P81 filter-binding method.
# [2] = human liver S9, unit min printed in b472 and Table 1, not in this table, read-out: Assay 4: human liver S9 half-life
# [3] = human, read-out: Assay 5: human liver S9 intrinsic clearance value (μL/min/mg protein)
# T1 sequence (Q02750 whole entry): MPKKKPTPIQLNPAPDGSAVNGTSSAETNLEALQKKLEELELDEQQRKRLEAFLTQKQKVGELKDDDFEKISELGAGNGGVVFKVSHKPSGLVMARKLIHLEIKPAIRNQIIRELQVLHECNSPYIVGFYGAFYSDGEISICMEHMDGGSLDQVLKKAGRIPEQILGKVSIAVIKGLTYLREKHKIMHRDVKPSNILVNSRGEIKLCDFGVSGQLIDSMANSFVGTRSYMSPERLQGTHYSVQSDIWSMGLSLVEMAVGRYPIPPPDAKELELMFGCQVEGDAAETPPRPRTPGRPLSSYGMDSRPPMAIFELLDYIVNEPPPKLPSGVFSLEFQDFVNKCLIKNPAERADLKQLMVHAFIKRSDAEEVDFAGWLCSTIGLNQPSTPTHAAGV
# T2 sequence (Q02750 whole entry): as above
GI50 (HCT116 cells) [µM],"half-life at 1 μM [1, 2] [min]","microsomal CLint at 1 μM [1, 3] [µL/min/mg]",pIC50 (MAP2K1 (MEK1)),GI50 (A375 cells) [µM],pIC50 (MEK1),Assay 5: human liver S9 intrinsic clearance value (μL/min/mg protein) ([1]; human liver S9),"half-life at 1 μM ([1]; Table 1, 1 μM test compound, 2 mg/mL S9 protein, NADPH, read-out: Liver S9 t1/2) [min]","microsomal CLint at 1 μM ([1]; Table 1, read-out: CLint (μL/min/mg protein)) [µL/min/mg]",SMILES
,54,6.36,6.59,,,,,,"Cc1ccc2c(C(=O)NOCCO)c(Nc3ccc(I)cc3F)sc2n1 [Ex. 5, 2-((2-Fluoro-4-iodophenyl)amino)-N-(2-hydroxyethoxy)-6-methylthieno[2,3-b]pyridine-3-carboxamide]"
,,,,,5.54,,,,"COc1ccc2c(C(=O)NOCCO)c(Nc3ccc(I)cc3F)sc2n1 [Ex. 6, 2-((2-fluoro-4-iodophenyl)amino)-N-(2-hydroxyethoxy)-6-methoxythieno[2,3-b]pyridine-3-carboxamide]"
,68,5.1,6.82,,,,,,"COc1cnc2sc(Nc3ccc(I)cc3F)c(C(=O)NOCCO)c2c1 [Ex. 7, 2-((2-Fluoro-4-iodophenyl)amino)-N-(2-hydroxyethoxy)-5-methoxythieno[2,3-b]pyridine-3-carboxamide]"

# Second part, the compound before the results:
SMILES,GI50 (HCT116 cells) [µM],"half-life at 1 μM [1, 2] [min]","microsomal CLint at 1 μM [1, 3] [µL/min/mg]",pIC50 (MAP2K1 (MEK1)),GI50 (A375 cells) [µM],pIC50 (MEK1),Assay 5: human liver S9 intrinsic clearance value (μL/min/mg protein) ([1]; human liver S9),"half-life at 1 μM ([1]; Table 1, 1 μM test compound, 2 mg/mL S9 protein, NADPH, read-out: Liver S9 t1/2) [min]","microsomal CLint at 1 μM ([1]; Table 1, read-out: CLint (μL/min/mg protein)) [µL/min/mg]"
"C#Cc1ccc(Nc2sc3ncccc3c2C(=O)NOCCO)c(F)c1 [Ex. 1, 2-((4-ethynyl-2-fluorophenyl)amino)-N-(2-hydroxyethoxy)thieno[2,3-b]pyridine-3-carboxamide]",0.348,29,11.8,5.99,0.141,,,,
"CSc1ccc(Nc2sc3ncccc3c2C(=O)NOCCO)c(F)c1 [Ex. 2, 2-((2-fluoro-4-(methylthio)phenyl)amino)-N-(2-hydroxyethoxy)thieno[2,3-b]pyridine-3-carboxamide]",0.257,16,21.2,,0.145,6.04,,,
"O=C(NOCCO)c1c(Nc2ccc(I)cc2F)sc2ncccc12 [Ex. 3, 2-((2-Fluoro-4-iodophenyl)amino)-N-(2-hydroxyethoxy)thieno[2,3-b]pyridine-3-carboxamide]",,,,7.13,,,13.35,26,13.3
